# Laboratory results as given in US11612609B2, “Uses of oxygenated cholesterol sulfates (OCS)” (Virginia Commonwealth University, priority 2013, dated 2023).
# “Also recorded” adds a separate entry of the source.
# Legend:
# [1] = test system: acute liver failure induced by acetaminophen; experiment: Acetaminophen (ATMP) 500 mg/kg acute liver failure in mice, serum markers (Example 1A); assay type: in vivo
# Method: (§1) Female mice were peritoneally-injected with acetaminophen (500 mg/kg, in 10% ethanol in PBS) either 0.5 or 2 hrs before being treated by administration of 25HC3S (20 or 25 mg/kg, 10% propylene glycol in PBS). Sera were collected 24 or 48 hrs following acetaminophen administration and enzymatic activities and other serum parameters were measured.
# [2] = test system: heart ischemia-reperfusion injury; experiment: Heart ischemia-reperfusion in mice (Example 4); assay type: in vivo, C67B16 mice
# Method: Wild-type C67B16 mice, both males and females, were used in the experiment. After anesthesia, the thorax of each mouse was opened and the heart was subject to a 45-minute ischemic period by ligation of the left anterior descending coronary artery, and then reperfusion was allowed by removing the coronary arterial obstruction. The thorax was closed, and mice were allowed to recover for 24 hours. All animals were sacrificed at the end of the study, 24 h after the procedure, to gain access to the heart tissue. The heart was frozen, sectioned into slices, and then stained to determine the infarct size.
# Given the experience that 25-30% of the animals may die within the 24-hour period because of the procedure (occlusion of coronary artery), all groups included 12 animals. The vehicle treated group (12 mice) was compared with 25HC3S treated groups (24 mice). One group of mice received the drug (25HC3S) just before ischemia/reperfusion (FR) and another group received drug about 16-20 h before FR. Administration was via the i.p. route with either vehicle (10% propylene glycol in PBS) or 25HC3S at a dose of 25 mg/kg in the same vehicle.
# [3] = test system: renal ischemia/reperfusion; experiment: Kidney ischemia-reperfusion in rats (Example 3); assay type: in vivo, Lewis rats
# Method: 25HC3S was dissolved in propylene glycol, at 20 mg/mL, and stored at room temperature as the stock solution. Before use, 3 parts of PBS was mixed with 1 part of DV928 stock solution. The final concentration for injection was 5 mg/ml. Preparation of the Formulation for oral gavage: […]
# 25HC3S was suspended in 0.5% carboxymethylcellulose (CMC) containing 0.05% tween-80, at 10 mg/mL, and stored at room temperature and mixed well before use.
# Adult (9- to 11-week-old) male Lewis (LEW, RE11) rats, 225-250 gram, were housed in a controlled 12-hr light-dark cycle environment and allowed free access to water and regular rat chow. All rats were anesthetized with pentobarbital 40 mg/kg i.p.
# Ischemia of the left kidney was performed by transient occlusion of the left renal artery and vein, and ureter for 50 min with a vascular micro-clip. The skin was temporarily closed during the ischemia period, and the rats were put on a heating pad maintained at a temperature of 37° C. At reperfusion, the right kidney was removed before closing the abdomen with 4-0 silk suture.
# Animals were randomly divided into 5 groups: • Group A. 25HC3S—i.p. dosing (as pre-treatment) N=12 • Group B. 25HC3S—i.p. dosing (as post-treatment) N=12 • Group C. 25HC3S—oral dosing (as pre-treatment) N=12 • Group D. Vehicle control, i.p. (as pre-treatment) N=6 • Group E. Vehicle control, oral (as pre-treatment) N=6
# Rats in the pre-treatment groups received active or vehicle 1 day before (Day −1) the surgical intervention (I/R event) and continued for a total of 4 days. Rats in the post-treatment group received the 1st treatment at 30 min after the renal artery occlusion and continued for a total of 3 days. Blood samples were taken from all rats 2 days before the surgery (as baseline), 3 days after the surgery, and 7 days after the surgery for serum creatinine and blood urea nitrogen (BUN) analysis. All rats were sacrificed on Day 7.
# [4] = test system: acute liver failure, as induced by PO administration of acetaminophen; experiment: ATMP 300 mg/kg PO in mice, serum chemistry and body weight (Example 2); assay type: in vivo; conditions: 25HC3S 25 mg/kg IP or PO, 1 hour and 24 hours after ATMP 300 mg/kg PO; vs route-matched vehicle
# Method: Mice were challenged with acetaminophen (300 mg/kg PO) and then treated with vehicle or 25HC3S (25 mg/kg) by IP injection or PO gavage, one (1) hour and 24 hours after acetaminophen challenge. Measurements and samples included whole blood for serum and clinical chemistry analysis (ALT, AST, ALK, LDH, BUN and glucose) and livers and kidneys for formalin fixation and histology.
# [5] = Level of 25HC3S in blood and tissues after administration (Example 1A, FIG. 3); assay type: in vivo, mice
# Method: FIGS. 3A and B. Concentration of 25HC3S in A, blood and B, the indicated tissues of rats subjected to high levels of ATMP.
# as §1
# FIGS. 3A and 3B show the level of 25HC3S in blood (3A) and the indicated tissues (3B) at the indicated times after administration.
# [6] = test system: mortality induced by LPS; experiment: Mortality induced by LPS, pretreatment with 25HC3S (Example 6C); assay type: in vivo, C57BL/6J mice; conditions: LPS 4 mg/kg IV; 25HC3S 50 mg/kg 2 hrs before LPS; as of day 3; control 40%
# Method: A further experiment to examine the effects of pretreatment of 25HC3S on mortality induced by LPS was conducted. In this experiment, 11-week-old female C57BL/6J mice were IV-injected with LPS (4 mg/kg in PBS). The mice were treated by administration of 25HC3S (50 mg/kg, 10% propylene glycol in PBS) 2 hrs before LPS administration, and mortality (% survival) was monitored. The results are presented below and in FIG. 9C.
# [7] = Human Phase I single dose ascending study (Example 7); assay type: in vivo
# Method: A randomized, double blind, and placebo controlled single dose ascending First-in-human Phase 1 study was conducted. The active agent, 25HC3S, was suspended at 30, 100, 300, and 600 mg in 60 mL of ORA-Blend® SF sugar-free flavored oral suspending vehicle. As Placebo dosage form, calcium carbonate, USP, was suspended at 30, 100, 300, and 600 mg in 60 mL of ORA-Blend® SF sugar-free flavored oral suspending vehicle. The suspension, either active or Placebo, was orally administered to each subject. Each dose group had 4 subjects receiving a single dose of active and 2 subjects receiving a single dose of Placebo. All subjects were monitored by health professionals for any potential adverse events for 7 days following administration.
# [8] = test system: transient focal cerebral ischemia (tMCAO); experiment: Brain stroke study, transient middle cerebral artery occlusion (tMCAO) in rats (Example 5); assay type: in vivo, Sprague Dawley rats; conditions: for tissue viability (T2 relaxation time): lower T2 in ms vs vehicle
# Method: Transient focal cerebral ischemia was produced by right side middle cerebral artery (MCA) occlusion in male Sprague Dawley rats under anesthesia. After 120 min of ischemia, the MCA blood flow was restored. The procedure was therefore named tMCAO. All rats were given an i.p. injection of saline (4 ml per rat) after the surgery. Three groups of rats were used in the study: • Group A: 12 sham operated rats received vehicle by ip injection • Group B: 12 tMCAO rats received vehicle by ip injection • Group C: 12 tMCAO rats received 25HC3S by ip injection The parameters measured were as follows: • Mean body weight over time • Mean 7- and 20-point Neuroscore over time • Limb Placing test results over time • Mean infarct volumes (mm3), edema volumes (mm3) and T2-relaxation times (ms) Behavioral testing was conducted at 24 hours, 3 days, and 7 days post transient middle cerebral artery occlusion (tMCAO). Both 20-point Neuroscore and 7-point Neuroscore tests were conducted to assess post-ischemic motor and behavioral deficits. The Limb Placing test was conducted to assess the sensory motor integration of fore- and hind-limbs responses to tactile and proprioceptive stimulation. MRI acquisitions in vivo for all rats were performed at 24 h and 7 days after tMCAO.Lesion size, tissue viability (T2 in milliseconds), and brain edema were determined using absolute T2-MRI. Eighteen (18) coronal slices of thickness 1 mm were acquired using field-of-view imaging matrix. Absolute T2-values from contra-lateral cortex were used as a reference for tissue viability. All MRI data were analyzed using Matlab software. The infarct volume/oedema analysis was done by an observer blinded to the treatment groups. Results
# [9] = test system: sepsis induced by the endotoxin lipopolysaccaride (LPS); experiment: Sepsis induced by LPS, 25HC3S given 2 hrs after LPS (Examples 6A and 6B); assay type: in vivo, C57BL/6J mice; conditions: 25HC3S 25 mg/kg 2 hrs after LPS, vs vehicle
# Method: To examine the effect of 25HC3S on sepsis induced by the endotoxin lipopolysaccaride (LPS), 11-week-old female C57BL/6J mice were IV-injected with LPS (30 mg/kg or 40 mg/kg, in PBS) 2 hrs before being treated by administration of 25HC3S (25 mg/kg, 10% propylene glycol in PBS), and mortality was monitored (% survival).
# [10] = test system: high dose of acetaminophen (ATMP); experiment: ATMP 600 mg/kg in mice, 10-day mortality and liver function markers (Example 1B); assay type: in vivo
# Method: In another set of experiments, female mice were peritoneally-injected with acetaminophen (600 mg/kg, in 20% EtOH in PBS) and were then further treated by peritoneal injection of 25HC3S (25 mg/kg in 10% PG in PBS) 2 and 24 hrs later. Control mice received ATMP without 25HC3S. Mortality was monitored for 10 days.
# [11] = 25HC3S 20 or 25 mg/kg 2 hours after ATMP 500 mg/kg, within 24 hrs
# [12] = oral gavage pretreatment, higher dose, Day 3, to a lesser extent than injection
# [13] = post-treatment by injection, first dose 30 min after occlusion, 3 days
# [14] = pretreatment by IP injection a day before surgery, once daily 4 days
# [15] = 24 hours post tMCAO, vs vehicle, difference not statistically significant
# [16] = 24 hours, 3 days, 7 days post tMCAO, vs vehicle, trend of better scores
compound,measurement,setting,value
"C[C@H](CCCC(C)(C)O)[C@H]1CC[C@H]2[C@@H]3CC=C4C[C@@H](OS(=O)(=O)O)CC[C@]4(C)[C@H]3CC[C@]12C [25HC3S, 5-cholesten-3, 25-diol, 3-sulfate]",decrease of serum ALT,[1]; [11],58%
same,decrease of serum AST,[1]; [11],45%
same,decrease of serum LDH,[1]; [11],60%
same,"markers of liver and kidney function (ALT, AST, ALK, LDH, BUN, glucose)","[1]; 25HC3S 0.5 hours after ATMP, in 48 hrs",returned most markers of liver and kidney function to normal levels
same,size of infarction,"[2]; 25HC3S 25 mg/kg i.p. just before or 16-20 h before ischemia/reperfusion, vs vehicle",no statistically significant difference
same,24-hour survival rate,"[2]; 25HC3S 25 mg/kg i.p., vehicle group 64%",86%
same,serum BUN level,[3]; [12],reduced
same,serum creatinine level,[3]; [12],reduced
same,serum BUN level,[3]; [13],reduced
same,serum creatinine level,[3]; [13],reduced
same,serum BUN level,[3]; [14],significantly improved
same,serum creatinine level,[3]; [14],significantly improved
same,attenuation of body weight loss,[4],no statistically significant attenuation
same,"attenuation of elevated clinical chemistry parameters (LDH, AST and ALT)",[4],no statistically significant attenuation
same,half-life,"[5]; female, mouse, blood, FIG. 3A, read-out: half life in circulation (converted)",~30 h
same,tissue distribution,"[5]; indicated tissues, FIG. 3B",widely distributed in different tissues
same,survival rate,[6],100%
same,adverse effects,"[7]; single oral dose 30, 100, 300, 600 mg suspension, monitored 7 days",No adverse effects were observed
same,tolerability,[7]; single oral dose 30-600 mg,well tolerated
same,bioavailability,"[7]; single oral dose, plasma samples (FIG. 10)",high bioavailability
same,brain lesion volume,"[8]; 24 hours after tMCAO, vs vehicle, difference not statistically significant",smaller
same,tissue viability (T2 relaxation time),[8]; 24 hours post tMCAO,statistically higher tissue viability
same,% edema,[8]; [15],smaller
same,edema volume,[8]; [15],smaller
same,7-point Neuroscore,[8]; [16],no statistically significant differences
same,20-point Neuroscore,[8]; [16],no statistically significant differences
same,Limb Placing test,[8]; [16],no statistically significant differences
same,brain lesion volume,"[8]; 7 days after tMCAO, vs vehicle, difference not statistically significant",smaller
same,% edema,[8]; 7 days post tMCAO,nearly recovered; also recorded: some higher levels of edema
same,edema volume,[8]; 7 days post tMCAO,nearly recovered; also recorded: some higher levels of edema
same,tissue viability (T2 relaxation time),[8]; 7 days post tMCAO,statistically higher tissue viability
same,"irritation, discomfort or adverse side effects",[8]; ip injection in tMCAO rats,"did not cause irritation, discomfort, or any adverse side effects"
same,body weight recovery,"[8]; starting from Day 4 after tMCAO, vs vehicle",faster recovery in body weights
same,survival (mortality monitored),[9]; LPS 30 mg/kg IV,lived significantly longer
same,survival (mortality monitored),[9]; LPS 40 mg/kg IV,lived significantly longer
same,survival rate,"[10]; 25HC3S 25 mg/kg ip 2 and 24 hrs after ATMP 600 mg/kg, monitored 10 days, vs control",much higher than that of control animals
same,"liver function (damage) markers ALT, AST, AKP and ADH","[10]; surviving mice, sera at 48 hours, vs control (ATMP and vehicle)",lower values of each enzyme
